Results reported in patent US11571413B2, “Nicotinamide riboside treatments of domesticated meat animals” (Kansas State University Research Foundation, priority 2017, dated 2023).
Where “and” joins values, the source holds several entries; their conditions need not be identical. Equal values may be shown once. Marks after values point to notes of the source that are not given here.

Tests used:
[1] = test system: Fertilized broiler eggs (Cobb 500); assay: In ovo feeding of NR into yolk or albumen: hatched chick body and pectoralis major morphometrics (Example VI); format: in vivo, chicken; conditions: hatched chicks
Method: Fertilized broiler eggs (N=156; Cobb 500; Cobb-Vantress, Siloam Springs, Ark.) with an average weight of 70.3 g were transported in coolers to the Kansas State University Muscle Biology Laboratory (Manhattan, Kans.). Upon arrival, egg weights were recorded, eggs were ordered by weight, and within each 4 egg strata, eggs were randomly assigned to treatments within a 2×2 factorial arrangement. Factor 1 was NR treatment with eggs receiving 0 or 250 mM NR (ChromaDex, Los Angeles, Calif.). Factor 2 was injection location, with treatments injected into either the yolk or albumen. After treatment assignment, eggs were positioned with equal treatment representation onto trays and placed in an incubator (Sportsman 1502; GQF Manufacturing Company Inc., Savannah, Ga.) set to operate at a temperature of 37° C. and a relative humidity of 40±2% for the first 18 d of incubation. The incubator rotated hourly to reposition eggs, and trays were rotated daily throughout the incubator to account for variation in temperature and humidity. Tray weights were recorded each day to determine egg weight loss percentage with a target weight loss of 0.67% per day.
At d 10 of incubation, NR with the equivalent weight of 250 mM was added to 0.9% sterile saline and covered with foil to prevent exposure to light. Sets of 20 eggs representing equal treatment numbers were removed from the incubator, candled to determine location of the yolk and albumen, and the injection site was cleaned with 70% ethanol. Eggs were turned at a 90° angle and a 2.54-cm, 20-guage hypodermic needle was used to create an opening in the shell at the proper injection site. The needle was inserted approximately 1 cm into injection site and 100 μl of the 250 mM NR solution or 0.9% saline solution was injected into the egg. A 1-cm^2 portion of medical tape (Nexcare; 3M, Maplewood, Minn.) was positioned over the injection location and eggs were returned to the incubator.
On d 18 of incubation, the relative humidity of the incubator was increased to 60±2% and eggs were placed into hatching boxes at the bottom of the incubator. As chicks began to hatch, they were removed from the incubator, marked for treatment, and relocated to a box positioned underneath a heat lamp. Approximately 12 to 24 h after hatch, chicks were euthanized by prolonged exposure to CO2 gas and decapitation. Chick weights were recorded, and digital calipers (Traceable Digital Calipers; Fisher Scientific, Pittsburg, Pa.) were utilized to measure crown to rump length, head width, head length. Head and chest circumference were also collected by wrapping a string around the designated area and determining the length against a ruler.
Chick carcasses were sprayed with 70% ethanol and the skin and feathers were pulled back to reveal the pectoralis major (PM) muscles. Prior to PM muscles removal, chest width and length were measured using digital calipers. The left and right PM muscles were removed, careful to not remove the pectoralis minor muscles. The left PM was weighed and dimensions were collected using digital calipers, including length, width, and depth. This muscle was positioned onto a tongue depressor and placed into a −80° C. freezer, where it was stored until it was used for cryosectioning. The heart and liver were also removed, weighed, and discarded.

growing pigs = assay: Longissimus lumborum muscle fiber distribution and succinate dehydrogenase staining (Example III); format: in vivo, pig; conditions: 30 mg/kg BW, 7 days; numerical
Method: Nine growing pigs were blocked by bodyweight (BW) and placed in metabolism crates. After a 3-day acclimation period, pigs within each BW block were randomly assigned to a treatment (n=3 pigs/treatment). Treatments comprised pigs supplemented 0, 15, or 30 mg/kg BW NR for 7 days. Pigs were allowed ad libitum access to a standard growing diet and water. Treatments were administered daily at 8 a.m. by mixing NR in 20 mL of Karo® dark syrup and orally drenching the pigs. On day 0 and 3 of the trial, muscle biopsies of the LL were taken for NAD+ analysis using standard procedures. At day 7, pigs were transported to the Kansas State University Meats Laboratory and euthanized by a captive penetrating bolt to the brain, followed by exsanguination. Following harvest procedures, 3 g of the LL were collected for NAD+ analysis. Twenty-four hours after harvest, the whole LL not sampled at harvest was removed from the carcass and aged 10 days. After aging, the LL was cut into 6 chops for retail color stability analysis, including 6-day surface oxy- and metmyoglobin percentage, 6-day objective and subjective color panel evaluation, and day 4 and 6 metmyoglobin reducing ability (MRA).

[2] = 250 mM NR, 100 μl into albumen d 10
[3] = 250 mM NR, 100 μl into yolk d 10

In the case of `NC(=O)c1ccc[n+]([C@@H]2O[C@H](CO)[C@@H](O)[C@H]2O)c1` [Nicotinamide riboside, nicotinamide riboside], the “Increase of PM weight” value ([1]; 250 mM NR into the yolk sac) is reported as 38%, the “Increase of PM length” value ([1]; 250 mM NR into the yolk sac, listed as NR) is reported as 22% and 21% and the Body weight [1, 2] is reported as 43.19 g. It also gave a Chest length [1, 2] of 21.98 mm, a Chest width [1, 2] of 16.57 mm and a Crown-rump length [1, 2] of 96.14 mm. For the same molecule, the Head circumference [1, 2] was 32.14 mm, the Head length [1, 2] was 21.29 mm and the Head width [1, 2] was 15.56 mm. For the same molecule, the Heart weight [1, 2] was 0.35 g, the Liver weight [1, 2] was 1.05 g and the Pectoralis major depth [1, 2] was 2.43 mm. For the same molecule, the Pectoralis major length [1, 2] was 18.68^b mm, the Pectoralis major weight [1, 2] was 0.14^a g and the Pectoralis major width [1, 2] was 4.81 mm. The Body weight [1, 3] was 44.02 g, the Chest length [1, 3] was 22.68 mm and the Chest width [1, 3] was 17.69 mm. It also gave a Crown-rump length [1, 3] of 89.36 mm, a Head circumference [1, 3] of 31.49 mm and a Head length [1, 3] of 21.73 mm. The Head width [1, 3] was 15.45 mm, the Heart weight [1, 3] was 0.36 g and the Liver weight [1, 3] was 1.11 g. For the same molecule, the Pectoralis major depth [1, 3] was 2.65 mm, the Pectoralis major length [1, 3] was 20.74^c mm and the Pectoralis major weight [1, 3] was 0.18^b g. The Pectoralis major width [1, 3] was 5.21 mm, the “Increase of PM width” value ([1]; 250 mM NR, regardless of injection location) was 9% and the “Increase of PM depth” value ([1]; 250 mM NR, regardless of injection location, listed as NR) was 11% and 10%. The “Muscle fiber distribution vs 0 mg/kg LL” value (growing pigs) was “less type 2B (glycolytic) fibers and more type 1 and 2A (oxidative) fibers” and the “Succinate dehydrogenase staining in type 2B fibers vs other two treatments” value (growing pigs) was “more intense staining”.
